Results on 17 molecules are retold here after patent US9060515B2, “Heterocyclic urea compounds” (BIOTA EUROPE LTD, priority 2011, dated 2015).

What all share (type): cell-based
Experiment [1] has as its system S. aureus (ATCC 29213). Put plainly: Antibacterial susceptibility testing (MIC, broth microdilution or agar dilution), S. aureus. As to conditions: Staphylococcus aureus, ATCC29213; read-out: S. aureus (ATCC 29213) minimal inhibitory concentration (MIC). An outline of the steps:
(§1)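 MICs by CLSI (M7-A7) broth microdilution or agar dilution, against reference ATCC strains as listed.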

For experiment [2], the system named is E. faecalis (ATCC 29212). As to the kind of experiment: Antibacterial susceptibility testing (MIC, broth microdilution or agar dilution), E. faecalis. To be noted: Enterococcus faecalis, ATCC29212; read-out: E. faecalis (ATCC 29212) minimal inhibitory concentration (MIC). An outline of the steps:
as §1
A general note: Dilution methods test growth across graded concentrations, often in twofold steps.

Experiment [3] deals with S. pyogenes (ATCC 51339). Put plainly: Antibacterial susceptibility testing (MIC, broth microdilution or agar dilution), S. pyogenes. To be noted: Streptococcus pyogenes, ATCC51339; read-out: S. pyogenes (ATCC 51339) minimal inhibitory concentration (MIC). An outline of the steps:
as §1

In experiment [4] the test system is H. influenzae (ATCC 49247). As to the kind of experiment: Antibacterial susceptibility testing (MIC, broth microdilution or agar dilution), H. influenzae. As to conditions: Haemophilus influenzae, ATCC49247; read-out: H. influenzae (ATCC 49247) minimal inhibitory concentration (MIC). In short, it runs like this:
as §1

Molecules are shown by their SMILES. Converted amounts (≈) assume the structure as drawn. Bounds are passed on as bounds.

As for `CCNC(=O)Nc1cc(Nc2cc(F)c(F)c(F)c2)c(C(=O)Nc2ccc(CCC(=O)O)cc2)cn1` [Compound 189], the MIC in experiment [1], in experiment [2], in experiment [3] and in experiment [4] was at most 1 µg/mL in each case.

As for `CCNC(=O)Nc1cc(Nc2ccc(C(=O)OC)cc2)c(C(=O)Nc2ccc(CC(C)(C)C(=O)O)cc2)cn1` [Compound 196], the MIC in experiment [1], in experiment [2], in experiment [3] and in experiment [4] was at most 1 µg/mL throughout.

In the case of `CCNC(=O)Nc1cc(Nc2ccc(C#N)cc2)c(C(=O)Nc2ccc(CC(C)(C)C(=O)O)cc2)cn1` [Compound 188, 3-{4-[({4-[(4-cyanophenyl)amino]-6-[(ethylcarbamoyl)amino]pyridin-3-yl}carbonyl)amino]phenyl}-2,2-dimethylpropanoic acid], the MIC in experiment [1], in experiment [2], in experiment [3] and in experiment [4] was at most 1 µg/mL in each case.

Consider `CCNC(=O)Nc1cc(Nc2ccc(Cl)cc2F)c(C(=O)Nc2ccc(CCC(=O)O)cc2)cn1` [Compound 224, 3-{4-[({4-[(4-chloro-2-fluorophenyl)amino]-6-[(ethylcarbamoyl)amino]pyridin-3-yl}carbonyl)amino]phenyl} propanoic acid], for which the MIC in experiment [1], in experiment [2], in experiment [3] and in experiment [4] was at most 1 µg/mL throughout.

Regarding `CCNC(=O)Nc1cc(Nc2cc(F)cc(F)c2)c(C(=O)Nc2ccc(CC(C)(C)C(=O)O)cc2)cn1` [Compound 239, 3-{4-[({4-[(3,5-difluorophenyl)amino]-6-[(ethylcarbamoyl)amino]pyridin-3-yl}carbonyl)amino]phenyl}-2,2-dimethyl propanoic acid], the MIC in experiment [1], in experiment [2] and in experiment [4] was at most 1 µg/mL in each case.

As to `CCNC(=O)Nc1cc(Nc2cc(F)cc(F)c2)c(C(=O)Nc2ccc(C3CC3C(=O)O)cc2)cn1` (stereo not shown) [Compound 238, 2-{4-[({4-[(3,5-difluorophenyl)amino]-6-[(ethylcarbamoyl)amino]pyridin-3-yl}carbonyl)amino]phenyl}cyclopropanecarboxylic acid], the MIC in experiment [1], in experiment [2] and in experiment [4] was at most 1 µg/mL in each case.

As to `CCNC(=O)Nc1cc(Nc2ccccc2)c(C(=O)Nc2ccc(CS(=O)(=O)NC)cc2)cn1` [Compound 210, 6-[(ethylcarbamoyl)amino]-N-{4-[(methylsulfamoyl)methyl]phenyl}-4-(phenylamino)pyridine-3-carboxamide], the MIC in experiment [1] is 2 µg/mL (≈ 4.14 µM); in experiment [2], at most 1 µg/mL; in experiment [4], 4 µg/mL (≈ 8.29 µM).

`CCNC(=O)Nc1cc(Nc2ccc(F)c(Cl)c2)c(C(=O)Nc2ccc(CCC(=O)O)cc2)cn1` [Compound 229, 3-{4-[({4-[(3-chloro-4-fluorophenyl)amino]-6-[(ethylcarbamoyl)amino]pyridin-3-yl}carbonyl)amino]phenyl}propanoic acid]: the MIC in experiment [1], in experiment [2], in experiment [3] and in experiment [4] was at most 1 µg/mL throughout.

For the molecule `CCNC(=O)Nc1cc(Nc2ccc(F)c(C)c2)c(C(=O)Nc2ccc(CCC(=O)O)cc2)cn1` [Compound 223, 3-{4-[({6-[(ethylcarbamoyl)amino]-4-[(4-fluoro-3-methylphenyl)amino]pyridin-3-yl}carbonyl)amino]phenyl}propanoic acid], the MIC in experiment [1], in experiment [2] and in experiment [4] was at most 1 µg/mL in each case.

Consider `CCNC(=O)Nc1cc(Nc2cc(F)cc(F)c2)c(C(=O)Nc2ccc(CCC(=O)O)cc2)cn1` [Compound 235, 3-{4-[({4-[(3,5-difluorophenyl)amino]-6-[(ethylcarbamoyl)amino]pyridin-3-yl}carbonyl)amino]phenyl}propanoic acid], for which the MIC is at most 1 µg/mL in experiment [1], at most 1 µg/mL in experiment [2], at most 1 µg/mL in experiment [3] and 4 µg/mL (≈ 8.27 µM) in experiment [4].

In the case of `CCNC(=O)Nc1cc(Nc2ccc(F)c(F)c2)c(C(=O)Nc2ccc(CCC(=O)O)cc2)cn1` [Compound 220, 3-{4-[({4-[(3,4-difluorophenyl)amino]-6-[(ethylcarbamoyl)amino]pyridin-3-yl}carbonyl)amino]phenyl}propanoic acid], the MIC in experiment [1], in experiment [2], in experiment [3] and in experiment [4] was at most 1 µg/mL throughout.

In the case of `CCNC(=O)Nc1cc(Nc2cc(Cl)cc(Cl)c2)c(C(=O)Nc2ccc(CCC(=O)O)cc2)cn1` [Compound 228, 3-{4-[({4-[(3,5-dichlorophenyl)amino]-6-[(ethylcarbamoyl)amino]pyridin-3-yl}carbonyl)amino]phenyl}propanoic acid], the MIC in experiment [1], in experiment [2], in experiment [3] and in experiment [4] was at most 1 µg/mL each time.

On to `CCNC(=O)Nc1cc(Nc2cccc(F)c2)c(C(=O)Nc2ccc(CC(C)(C)C(=O)O)cc2)cn1` [Compound 181, 3-{4-[({6-[(ethylcarbamoyl)amino]-4-[(3-fluorophenyl)amino]pyridin-3-yl}carbonyl)amino]phenyl}-2,2-dimethylpropanoic acid], for which the MIC in experiment [1], in experiment [2], in experiment [3] and in experiment [4] was at most 1 µg/mL throughout.

For the molecule `CCNC(=O)Nc1cc(Nc2ccccc2)c(C(=O)Nc2ccc(S(N)(=O)=O)cc2)cn1` [Compound 231, 6-[(ethylcarbamoyl)amino]-4-(phenylamino)-N-(4-sulfamoylphenyl)pyridine-3-carboxamide], the MIC in experiment [1] was 4 µg/mL (≈ 8.8 µM); in experiment [2], at most 1 µg/mL; in experiment [4], 4 µg/mL (≈ 8.8 µM).

For `CCNC(=O)Nc1cc(Nc2ccc(C#N)cc2)c(C(=O)Nc2ccc(CN3CCOCC3)cc2)cn1` [Compound 204, 4-[(4-cyanophenyl)amino]-6-[(ethylcarbamoyl)amino]-N-[4-(morpholin-4-ylmethyl)phenyl]pyridine-3-carboxamide], the MIC in experiment [1] was at most 1 µg/mL; in experiment [2], at most 1 µg/mL; in experiment [4], 4 µg/mL (≈ 8.01 µM).

With `CCNC(=O)Nc1cc(Nc2cccc(F)c2)c(C(=O)Nc2ccc(CCC(=O)O)cc2)cn1` [Compound 221, 3-{4-[({6-[(ethylcarbamoyl)amino]-4-[(3-fluorophenyl)amino]pyridin-3-yl}carbonyl)amino]phenyl}propanoic acid], the MIC in experiment [1], in experiment [2], in experiment [3] and in experiment [4] was at most 1 µg/mL throughout.

With `CCNC(=O)Nc1cc(Nc2ccccc2)c(C(=O)Nc2ccc(NS(C)(=O)=O)cc2)cn1` [Compound 232, 6-[(ethylcarbamoyl)amino]-N-{4-[(methylsulfonyl)amino]phenyl}-4-(phenylamino)pyridine-3-carboxamide], the MIC was 2 µg/mL (≈ 4.27 µM) in experiment [1], at most 1 µg/mL in experiment [2] and 4 µg/mL (≈ 8.54 µM) in experiment [4].
